The record followed here is ChEMBL document CHEMBL5252515, “Discovery of 6-Amino-2-{[(1S)-1-methylbutyl]oxy}-9-[5-(1-piperidinyl)pentyl]-7,9-dihydro-8H-purin-8-one (GSK2245035), a Highly Potent and Selective Intranasal Toll-Like Receptor 7 Agonist for the Treatment of Asthma” (J Med Chem, 2016).

Common to all, as to format: cell-based
Assay [1] concerns the target T1, Toll-like receptor 7 (Homo sapiens, UniProt Q9NYK1).
T1 sequence (Q9NYK1 whole entry): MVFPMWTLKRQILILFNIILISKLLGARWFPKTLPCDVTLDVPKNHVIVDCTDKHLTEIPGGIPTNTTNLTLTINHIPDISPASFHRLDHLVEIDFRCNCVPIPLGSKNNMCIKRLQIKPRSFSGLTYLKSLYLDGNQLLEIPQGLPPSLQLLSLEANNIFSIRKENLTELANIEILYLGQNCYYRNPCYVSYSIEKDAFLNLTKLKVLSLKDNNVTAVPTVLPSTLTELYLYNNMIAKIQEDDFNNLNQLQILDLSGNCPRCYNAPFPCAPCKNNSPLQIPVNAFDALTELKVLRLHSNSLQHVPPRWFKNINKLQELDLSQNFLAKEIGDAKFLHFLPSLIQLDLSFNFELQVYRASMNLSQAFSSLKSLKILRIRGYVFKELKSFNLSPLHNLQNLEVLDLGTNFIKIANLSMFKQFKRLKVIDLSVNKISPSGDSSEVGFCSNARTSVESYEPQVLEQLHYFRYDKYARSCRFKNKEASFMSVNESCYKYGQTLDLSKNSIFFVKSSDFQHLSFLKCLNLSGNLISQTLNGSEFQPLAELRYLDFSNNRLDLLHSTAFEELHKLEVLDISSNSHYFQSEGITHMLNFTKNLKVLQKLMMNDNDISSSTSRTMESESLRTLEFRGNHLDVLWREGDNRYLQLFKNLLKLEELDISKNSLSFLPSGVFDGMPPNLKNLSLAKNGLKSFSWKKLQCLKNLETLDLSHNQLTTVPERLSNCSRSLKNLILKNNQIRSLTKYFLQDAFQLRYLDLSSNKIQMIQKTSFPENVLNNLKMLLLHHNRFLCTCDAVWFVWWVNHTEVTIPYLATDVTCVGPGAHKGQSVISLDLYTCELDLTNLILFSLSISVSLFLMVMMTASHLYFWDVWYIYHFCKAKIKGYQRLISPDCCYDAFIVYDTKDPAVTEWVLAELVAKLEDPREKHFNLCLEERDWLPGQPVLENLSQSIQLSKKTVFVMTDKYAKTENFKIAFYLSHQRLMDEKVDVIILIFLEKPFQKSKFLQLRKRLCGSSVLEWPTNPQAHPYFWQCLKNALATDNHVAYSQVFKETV
Briefly: Agonist activity at TLR7 in human PBMC assessed as IFN-alpha production after 24 hrs by electrochemiluminescence assay.

Assay [2] concerns the target T1, Toll-like receptor 7. Briefly: Agonist activity at TLR7 in human PBMC assessed as TNF-alpha production after 24 hrs by electrochemiluminescence assay.
For assay [3], the target named is T1, Toll-like receptor 7. Briefly: Agonist activity at TLR7 in cryopreserved human PBMC assessed as IFN-alpha production after 24 hrs by MSD assay.

Molecules are shown by their SMILES.

Take `CCCCOc1nc(N)c2[nH]c(=O)n(CCCCCCN3CCCCC3)c2n1`: the concentration for a half-maximal effect (EC50) (commonly the concentration at which the effect is half-maximal) at Toll-like receptor 7 [1] is 1.58 nM; on Toll-like receptor 7 [2], 2 µM.
Regarding `CCCCOc1nc(N)c2[nH]c(=O)n(CCCCN3CCN(C(C)C)CC3)c2n1`, the results for the 50% effective concentration (EC50) at Toll-like receptor 7 [1] and at Toll-like receptor 7 [2] were 2.51 nM and 6.31 µM, respectively.
`CCCCOc1nc(N)c2nc(O)n(Cc3ccccc3)c2n1`: the EC50 at Toll-like receptor 7 [3] is 126 nM.
Turning to `CCCCOc1nc(N)c2[nH]c(=O)n(CCCCCCC3CCOCC3)c2n1`, on Toll-like receptor 7 [3], the EC50 is 794 nM.
For `CCCCOc1nc(N)c2[nH]c(=O)n(CCC3CCOCC3)c2n1`, the EC50 at Toll-like receptor 7 [3] is 200 nM.
On to `CCCCOc1nc(N)c2[nH]c(=O)n(CCCCC3CCNCC3)c2n1`, for which the values for the EC50 on Toll-like receptor 7 [1] and on Toll-like receptor 7 [2] were 0.631 nM and 0.631 µM, respectively.
As to `CCCCOc1nc(N)c2[nH]c(=O)n(CCCCC3CCCO3)c2n1` (stereo not given), the half-maximal effective concentration (EC50) at Toll-like receptor 7 [3] is 158 nM.
As for `CCCCOc1nc(N)c2[nH]c(=O)n(CCN3CCCCC3)c2n1`, at Toll-like receptor 7 [3], the EC50 is 2510 nM.
Still for that read-out and setting: next, `CCCCOc1nc(N)c2nc(O)n(CCCN3CCCCC3)c2n1`: 316 nM.
In the case of `CCCCOc1nc(N)c2[nH]c(=O)n(CCCCN3CCCCC3)c2n1`, the EC50 at Toll-like receptor 7 [1] is 6.31 nM; at Toll-like receptor 7 [2], 6.31 µM.
On the same counts, the results for `CC(C)Oc1nc(N)c2[nH]c(=O)n(CCCCCN3CCCCC3)c2n1` are 1 nM and 12.6 µM.
On to `CCCCOc1nc(N)c2[nH]c(=O)n(CCCCC3CCOC3)c2n1` (stereo not given), for which the 50% effective concentration (EC50) on Toll-like receptor 7 [3] is 63.1 nM.
On to `CCCCOc1nc(N)c2[nH]c(=O)n(CC3CCOCC3)c2n1`, for which the EC50 at Toll-like receptor 7 [3] is 200 nM.
For the compound `CCCCOc1nc(N)c2[nH]c(=O)n(CCCCC3CCCNC3)c2n1` (stereo not given), the figures for the EC50 on Toll-like receptor 7 [1] and at Toll-like receptor 7 [2] were 2.51 nM and 1 µM, respectively.
The matching figures for `CCCCOc1nc(N)c2[nH]c(=O)n(CCCCN3CCOCC3)c2n1`: 200 nM and 3.98 µM.
Take `CCCCOc1nc(N)c2[nH]c(=O)n(CCCCN3CCCC3)c2n1`: the values for the EC50 at Toll-like receptor 7 [1] and on Toll-like receptor 7 [2] were 20 nM and 15.8 µM, respectively.
Turning to `CCCCOc1nc(N)c2[nH]c(=O)n(CCCCCN3CCCCC3)c2n1`, the EC50 was 7.94 nM at Toll-like receptor 7 [1] and 5.01 µM at Toll-like receptor 7 [2].
`CCCC[C@H](C)Oc1nc(N)c2[nH]c(=O)n(CCCCN3CCCCC3)c2n1`: the 50% effective concentration (EC50) on Toll-like receptor 7 [1] is 0.631 nM; at Toll-like receptor 7 [2], 2.51 µM.
Take `CCC[C@H](C)Oc1nc(N)c2[nH]c(=O)n(CCCCC3CCOCC3)c2n1`: the half-maximal effective concentration (EC50) on Toll-like receptor 7 [1] was 39.8 nM; at Toll-like receptor 7 [2] it was 0.126 µM.
`CCCCOc1nc(N)c2[nH]c(=O)n(CCCCC3CCN(C(C)C)CC3)c2n1`: the EC50 at Toll-like receptor 7 [1] was 0.794 nM; on Toll-like receptor 7 [2], 6.31 µM.
Turning to `CCCCOc1nc(N)c2[nH]c(=O)n(CCCCC3CCCCO3)c2n1` (stereo not given), the EC50 at Toll-like receptor 7 [3] is 316 nM.
The same measure, in the same setting: then `CCCCOc1nc(N)c2[nH]c(=O)n(CCCCCC3CCOCC3)c2n1`, with 50.1 nM.
On to `CCC[C@H](C)Oc1nc(N)c2[nH]c(=O)n(CCCCN3CCCCC3)c2n1`, for which the EC50 is 0.794 nM at Toll-like receptor 7 [1] and 2.51 µM on Toll-like receptor 7 [2].
Regarding `CCCCOc1nc(N)c2[nH]c(=O)n(CCCCC3CCOCC3)c2n1`, the concentration for a half-maximal effect (EC50) on Toll-like receptor 7 [3] is 100 nM.
As for `Nc1nc(OC2CCCC2)nc2c1[nH]c(=O)n2CCCCN1CCCCC1`, the EC50 is 1000 nM at Toll-like receptor 7 [1] and 12.6 µM on Toll-like receptor 7 [2].
Take `CCCCOc1nc(N)c2[nH]c(=O)n(CCCCC3CCCOC3)c2n1` (stereo not given): the EC50 on Toll-like receptor 7 [3] was 39.8 nM.
In the case of `CC[C@H](C)Oc1nc(N)c2[nH]c(=O)n(CCCCCN3CCCCC3)c2n1`, the results for the 50% effective concentration (EC50) at Toll-like receptor 7 [1] and at Toll-like receptor 7 [2] were 0.501 nM and 10 µM, respectively.
For the compound `CCCCOc1nc(N)c2[nH]c(=O)n(CCCC3CCOCC3)c2n1`, on Toll-like receptor 7 [3], the EC50 was 63.1 nM.
In the case of `CCCCOc1nc(N)c2[nH]c(=O)n(CCCCN3CCCCCC3)c2n1`, the results for the EC50 at Toll-like receptor 7 [1] and at Toll-like receptor 7 [2] were 1.58 nM and 6.31 µM, respectively.
